Results as given in publication PMC13144739, “Global analysis of cancer cell responses to USP9X inhibition” (The EMBO Journal, 2026).
Entries after “also recorded” stand apart in the source; their conditions may differ.

Tests used:
[1] = system: USP24; experiment: DUBprofiler DUB selectivity panel, USP24; type: biochemical, human; details: 50 µM compound
Experimental: UAF1 was added to the USP1, USP12 and USP46 reactions (with WDR20 additionally added to the USP12 and USP46 reactions), respectively. Ubiquitin was added to the USP5 reaction at KD. Proteasome-VS was added to the USP14 reaction at KD. OTUD5 p177S was used. The reaction for AMSH-LP was supplemented with Zinc.

[2] = system: CEP55, MKRN2, EDF1, CHMP2B, DTX3L; experiment: Immunoblotting of commonly depleted USP9X substrates; type: cell-based, human; details: MiaPaca2 and SK-MEL-2, 24 h; rescued with proteasomal inhibition (MG132)
Experimental: The next day, cells were lysed in DISC lysis buffer (20 mM TRIS/HCl [pH 7.5], 150 mM NaCl, 2 mM EDTA [pH 8.0], 1% [v/v] Triton X 100, 10% [v/v] glycerol) supplemented with 2% (w/v) SDS and PhosSTOP tablets (Roche). To shred DNA, DISC lysates were run through polypropylene columns (Pierce). […] Next, membranes were washed twice in TBS-T and incubated with primary antibodies at 4 °C o/n. Primary antibodies were diluted in antibody dilution buffer (5% [w/v] BSA [pH 5.2, Sigma-Aldrich] in TBS-T with 0.04% [v/v] sodium azide) as per the manufacturer’s instructions. […] Next, membranes were washed four times for 5 min each in TBS-T. Membranes were developed in ECL (Bio-Rad) and imaged using the ChemiDoc imaging system (Bio-Rad). Images were processed using Image Lab software.

[3] = molecular target: T1, USP9X/USP24 chimera (Homo sapiens, UniProt Q93008, A1766S/D1761E/K1759R/L1762V/Y1757F); experiment: Ub-Rho cleavage assay, USP9X/USP24 chimera; type: biochemical
T1 construct: His/SUMO (pOPIN-S vector) (N, cleaved yes); made in house; host or cells: E. coli BL21
T1 sequence (Q93008 1551-1970 Y1757F/K1759R/D1761E/L1762V/A1766S): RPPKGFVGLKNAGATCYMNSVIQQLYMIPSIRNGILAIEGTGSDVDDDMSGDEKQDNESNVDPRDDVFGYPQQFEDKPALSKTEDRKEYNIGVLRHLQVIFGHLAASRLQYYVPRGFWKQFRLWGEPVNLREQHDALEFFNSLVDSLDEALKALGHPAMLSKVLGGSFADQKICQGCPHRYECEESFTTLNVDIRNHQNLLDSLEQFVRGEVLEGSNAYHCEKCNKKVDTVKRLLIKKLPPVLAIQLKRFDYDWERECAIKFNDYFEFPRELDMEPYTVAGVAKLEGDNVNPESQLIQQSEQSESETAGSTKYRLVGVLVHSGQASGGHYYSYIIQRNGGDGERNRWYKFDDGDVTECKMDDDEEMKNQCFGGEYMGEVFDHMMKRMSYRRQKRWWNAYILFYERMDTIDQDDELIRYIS
Text: An expression construct for the USP9X catalytic domain (aa 1551–1970, […]: Q93008-1), was codon optimised for bacterial expression, synthesised in gBlock format (Integrated DNA Technologies) and cloned into the pOPIN-S vector (Berrow et al, [2007]), which was digested with KpnI and HindIII using In-Fusion™ HD cloning (Takara Clontech). […] For the USP9X Δβ catalytic domain a deletion construct ΔE1924-K1943 and for USP9X/USP24 chimera, a construct with USP9X Y1757-A1766 replaced with the USP24 (NCBI Reference Sequence: NP_056121) aa motif […] was used. All constructs were confirmed by Sanger sequencing (AGRF).
The reaction was stopped through the addition of 10 mM citric acid. The assay was performed in 384-well format with a total reaction volume of 16 µL. Data was collected using the ClarioSTAR plate reader (BMG Labtech) at an emission of 535 nm. […] IC50 values presented in our study are the mean of three independent biological repeats unless indicated otherwise.

Compound: Cc1[nH]c2ccc(C(=O)N3CCN(S(=O)(=O)c4ccc5c(c4)OCCO5)CC3)cc2c1C [WEHI-092]
- inhibition of USP24, commercial panel [1]: not inhibited
- MKRN2, CHMP2B and DTX3L protein levels (Western Blot) [2]: led to protein depletion
- activity of USP9X/USP24 chimera in presence of compound [3]: remained fully active at concentrations up to 10 µM; also recorded: no longer inhibited
